Measured values as given in patent publication US20200023001A1, “GlycoFix (Structurally And Functionally Repaired Endothelial Glycocalyx)” (Northeastern University, priority 2018, published 2020).
Several values for one entry are separate records, joined by “and”; a condition that tells them apart may be missing. Identical values can stand only once.

Test system: Cx43 at RFPEC borders
Test: Cx43 expression at EC borders, immunostaining and confocal microscopy
Format: cell-based, rat
Method: Cell Culture. Rat fat pad ECs (RFPEC) at passages 20 to 39 were offspring of cells isolated from rat epididymal fat pad and provided by Dr. Mia Thi of Albert Einstein College of Medicine (Bronx, N.Y.). […] The RFPECs are immortalized, making it possible to use late passages. RFPEC were seeded on 12-14-mm diameter and 0.13-0.17-mm thick glass coverslips at a seeding density of 15,000-20,000 cells/cm^2. Cells were cultured in Dulbecco's Modified Eagle Medium (DMEM, Invitrogen, USA) with 1% penicillin-streptomycin (PS) and 10% fetal bovine serum (FBS, Gibco Life Technologies). Cells were maintained in humidity at 37° C. and 5% CO2. RFPECs reached full confluence in 3 days.
Cultured RFPECs produce thick and robust GCX in this time period. At 3 days post-seeding the RFPECs' culture medium was supplemented with 1% BSA in place of FBS to stabilize the GCX during preservation and immunolabeling (described below). For enzyme treatment experiments, 25 micro-international units per milliliter (μIU/ml) of heparinase III (Hep III; IBEX, Canada) were added to BSA-containing culture media for 2 hours to degrade HS from the GCX [46]. HepIII was washed out, and the wash-out was followed by a 16-hour incubation of RFPECs in regular BSA-containing media. In self-recovery experiments, RFPEC GCX was left to recover for 24 hours after enzyme degradation. The time frame was chosen in accordance with the 20-hour time period that is required for HS restoration to occur on the surface of ECs. For HS recovery experiments, exogenous HS and/or S1P were applied for 16 hours to accommodate the communication test as an assessment of functional glycocalyx recovery. […] After HS was degraded with HepIII, it was replaced by a 16-hour feeding of RFPECs with 59 μg/ml exogenous porcine mucosal HS (Celsus, Cincinnati, Ohio), based on published serum concentration of HS [43]. In sphingosine-1-phosphate experiments, culture media containing enzyme was substituted for media containing either 10 μM of S1P (Sigma-Aldrich) or a combination of 59 μg/ml of HS and 10 μM of S1P for 16 hours after enzyme degradation.
As specified by the manufacturer, the HS antibody reacts with many types of heparan sulfate. The reactivity of the HS antibody is abolished after treatment with Hep III, indicating antibody specificity. For secondary detection of HS, Alexa Flour 488 conjugated goat anti-mouse IgG/IgM (H+L; Life Technologies) secondary antibody was used. RFPECs to be processed for connexin 43 (Cx43) were fixed in 4% paraformaldehyde, permeabilized in 0.2% Triton X-100 (Fisher), and blocked in 5% goat serum combined with 0.2% Triton X-100. Connexin 43 staining was performed overnight at 4° C. with 1:100 mouse monoclonal Cx43 antibody (Millipore). […] Secondary Cx43 detection was done with Alexa Flour 488 conjugated goat anti-mouse IgG. […] These controls confirmed that the staining observed in the RFPECs is not an artefact.
Confocal immunofluorescence microscopy imaging and analysis. Alexa Fluor 488 fluorescent RFPECs were mounted with Vectashield containing DAPI (Vector Labs) and imaged with a Zeiss LSM 700 laser scanning confocal microscope. HS and Cx43 were imaged at 63× magnification (oil objective) and 40× magnification (oil objective), respectively. Lasers with excitation wavelengths of 490 nm (for HS or Cx43) and 350 nm (for DAPI) were used to obtain XY-plane slices. Laser gain and transmission were kept below fluorophore saturation levels. Confocal slice intervals were 0.2 μm for HS and 0.7 μm for Cx43. […]

## heparan sulfate [HS]
RFPEC, Hep III, then 16 h with or without 59 μg/ml HS and/or 10 μM S1P, mean±SEM
  Cx43 distribution along the perimeter of the cells: 46% and 46.45±4.21%
After Hep III, HS 59 μg/ml, S1P 10 μM
  Cx43 distribution/expression, result in words (FIG. 3 legend): partially restored
Treatment after enzymatic HS degradation
  Cx43 recovery at cell borders, % of baseline conditions: approximately 80%
